Experiments:
[1] = biological target: T1, human MAO-A (Homo sapiens, UniProt P21397); experiment: MAO inhibitory assay (kynuramine, fluorescence), MAO-A; type: biochemical; settings: human recombinant enzyme, kynuramine substrate, 37° C., pH 7.4
T1 sequence (P21397 1-527): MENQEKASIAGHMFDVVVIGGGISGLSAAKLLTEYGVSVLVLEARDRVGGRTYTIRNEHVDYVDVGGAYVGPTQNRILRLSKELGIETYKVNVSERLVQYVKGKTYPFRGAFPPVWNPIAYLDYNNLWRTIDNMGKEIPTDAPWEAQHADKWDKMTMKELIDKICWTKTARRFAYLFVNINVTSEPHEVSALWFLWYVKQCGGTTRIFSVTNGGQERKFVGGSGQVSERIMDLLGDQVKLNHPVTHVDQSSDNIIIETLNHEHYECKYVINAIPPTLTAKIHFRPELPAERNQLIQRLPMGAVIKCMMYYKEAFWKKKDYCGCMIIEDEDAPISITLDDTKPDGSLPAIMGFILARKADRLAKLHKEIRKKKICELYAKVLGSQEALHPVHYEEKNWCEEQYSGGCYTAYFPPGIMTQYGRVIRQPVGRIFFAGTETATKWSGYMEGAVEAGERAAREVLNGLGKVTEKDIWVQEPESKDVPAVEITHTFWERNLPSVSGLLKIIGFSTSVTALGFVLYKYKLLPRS
Protocol: (§1) MAO inhibitory activity was assayed using the method of Novaroli et al. with minor modifications. Briefly, 140 μL of 0.1 M potassium phosphate buffer (pH 7.4), 8 μL of 0.75 mM kynuramine, and 2 μL of a dimethyl sulfoxide (DMSO) inhibitor solution (final DMSO concentration of 1% (v/v) and final concentrations of the inhibitors of 0-1 μM), were preincubated at 37° C. for 10 min. Diluted human recombinant enzyme (50 μL) was then added to obtain a final protein concentration of 0.0075 mg/mL (MAO-A) or 0.015 mg/mL (MAO-B) in the assay mixture. The reaction mixture was further incubated at 37° C. and the reaction was stopped after 20 min by the addition of 75 μL of 2 M NaOH. The product generated by MAO, 4-quinolinol, is fluorescent and was measured at Ex 310 nm/Em 400 nm using a microplate reader (Thermo Scientific-Multiskan GO). Each data points of samples were triplicate. The sample solution was replaced with DMSO to provide a negative control.

[2] = biological target: T2, human MAO-B (Homo sapiens, UniProt P27338); experiment: MAO inhibitory assay (kynuramine, fluorescence), MAO-B; type: biochemical
T2 sequence (P27338 1-520): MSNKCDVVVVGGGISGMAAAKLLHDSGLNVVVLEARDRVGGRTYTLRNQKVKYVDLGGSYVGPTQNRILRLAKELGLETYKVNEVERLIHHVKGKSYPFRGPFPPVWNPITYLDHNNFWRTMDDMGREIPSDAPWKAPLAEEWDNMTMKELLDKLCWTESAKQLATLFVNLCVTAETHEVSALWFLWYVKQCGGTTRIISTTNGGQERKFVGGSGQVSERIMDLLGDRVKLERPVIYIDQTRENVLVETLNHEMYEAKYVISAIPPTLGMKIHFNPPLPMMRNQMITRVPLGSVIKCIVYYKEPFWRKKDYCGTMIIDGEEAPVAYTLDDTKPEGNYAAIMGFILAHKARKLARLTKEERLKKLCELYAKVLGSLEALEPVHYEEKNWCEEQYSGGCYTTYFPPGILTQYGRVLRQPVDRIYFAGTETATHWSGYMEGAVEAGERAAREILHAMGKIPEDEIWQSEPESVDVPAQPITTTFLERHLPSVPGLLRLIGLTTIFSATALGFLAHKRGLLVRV
Protocol: as §1

COc1ccc(-c2cc(C(=O)NCCn3cnc4ccccc43)n[nH]2)cc1OC [compound of formula I]
IC50 [1]: 0.0295 ± 0.0011 µM | IC50 ([2]; human recombinant enzyme, kynuramine substrate, 37° C., pH 7.4): 0.00322 ± 2e-05 µM | fold more potent binding to MOA-B compared to MOA-A ([2]; ratio of IC50 MAO-A / MAO-B): approximately 9 fold
